Read-outs that look alike come from different tables or passages of the source. Bridge positions count the residues as written; N and C are the ends. Square brackets hold non-standard residues; d marks the D form. Peptide text beside a SMILES is read from it. Phe(4-guanidino) = N=C(N)Nc1ccc(C[C@H](N)C(=O)O)cc1
Columns and labels:
huPA-H99Y V41A = target: T1, huPA-H99Y V41A (Homo sapiens, UniProt P00749, H272Y/V208A); test: Ki for inhibition of huPA-H99Y-V41A, chromogenic substrate; assay type: biochemical; details: 37°C; means ± S.D.; read-out: K i for inhibition of huPA-H99Y-V41A
T1 construct: To ensure that the uPAs purified from the conditioned media were completely in the two-chain form, they were treated with plasmin; hexa-His (C); made in house; host or cells: HEK293 6E suspension cells
Text: (§1) Determination of Ki values
(§2) The initial reaction velocities were monitored at an absorbance of 405 nm. The inhibition constants (K i) were subsequently determined from the non-linear regression analyses of plots for V i/V o versus [I]0, using Equation 2, derived under assumption of competitive inhibition:
(§3) [drawing 2] (2) where V i and V 0 are the reaction velocities in the presence and absence of inhibitor, respectively; [S]0 and [I]0 are the substrate and inhibitor concentrations, respectively; K M is K M for substrate hydrolysis by each protease. In Equation 2, it is assumed that [S]free ≈ [S]0 and [I]free ≈ [I]0.

muPA wt = target: T2, muPA wt (Mus musculus, UniProt P06869); details: means ± S.D.; starred values reproduced from previous publications; ref Andersen et al., 2008; Hosseini et al., 2011; read-out: K i for inhibition of muPA wt; cited from earlier work
T2 construct: To ensure that the uPAs purified from the conditioned media were completely in the two-chain form, they were treated with plasmin; hexa-His (C); made in house; host or cells: HEK293 6E suspension cells
T2 sequence (P06869 180-433 limits assumed): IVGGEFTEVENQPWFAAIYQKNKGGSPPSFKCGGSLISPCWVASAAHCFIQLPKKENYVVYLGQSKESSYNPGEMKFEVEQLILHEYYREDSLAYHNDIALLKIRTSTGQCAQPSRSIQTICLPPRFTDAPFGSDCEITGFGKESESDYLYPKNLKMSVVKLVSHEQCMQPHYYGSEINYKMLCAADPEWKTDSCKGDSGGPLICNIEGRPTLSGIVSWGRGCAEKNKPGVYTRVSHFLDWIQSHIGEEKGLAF
T2 sequence (P06869 21-178 partner limits assumed): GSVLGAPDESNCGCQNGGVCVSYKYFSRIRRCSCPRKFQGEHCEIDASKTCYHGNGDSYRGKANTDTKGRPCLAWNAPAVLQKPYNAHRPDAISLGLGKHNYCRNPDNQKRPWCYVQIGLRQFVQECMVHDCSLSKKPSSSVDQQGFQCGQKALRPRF

muPA V213T = target: T3, muPA V213T (Mus musculus, UniProt P06869, V396T); test: Ki for inhibition of muPA-V213T, chromogenic substrate; assay type: biochemical, murine; details: means ± S.D.; read-out: K i for inhibition of muPA-V213T
T3 construct: To ensure that the uPAs purified from the conditioned media were completely in the two-chain form, they were treated with plasmin; hexa-His (C); made in house; host or cells: HEK293 6E suspension cells
T3 sequence (P06869 180-433 V396T): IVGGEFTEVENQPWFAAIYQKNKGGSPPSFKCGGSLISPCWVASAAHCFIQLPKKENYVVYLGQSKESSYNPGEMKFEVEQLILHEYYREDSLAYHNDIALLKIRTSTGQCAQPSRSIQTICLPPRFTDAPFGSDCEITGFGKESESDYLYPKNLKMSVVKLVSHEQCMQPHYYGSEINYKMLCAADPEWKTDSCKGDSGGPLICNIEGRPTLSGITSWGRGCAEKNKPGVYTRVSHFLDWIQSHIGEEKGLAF
T3 sequence (P06869 21-178 partner limits assumed): as the sequence (P06869 21-178 partner limits assumed) above
Text: as §1, §2, §3

muPA K41A = target: T4, muPA K41A (Mus musculus, UniProt P06869, K210A); test: Ki for inhibition of muPA-K41A, chromogenic substrate; assay type: biochemical, murine; details: means ± S.D.; read-out: K i for inhibition of muPA-K41A
T4 construct: To ensure that the uPAs purified from the conditioned media were completely in the two-chain form, they were treated with plasmin; hexa-His (C); made in house; host or cells: HEK293 6E suspension cells
T4 sequence (P06869 180-433 K210A): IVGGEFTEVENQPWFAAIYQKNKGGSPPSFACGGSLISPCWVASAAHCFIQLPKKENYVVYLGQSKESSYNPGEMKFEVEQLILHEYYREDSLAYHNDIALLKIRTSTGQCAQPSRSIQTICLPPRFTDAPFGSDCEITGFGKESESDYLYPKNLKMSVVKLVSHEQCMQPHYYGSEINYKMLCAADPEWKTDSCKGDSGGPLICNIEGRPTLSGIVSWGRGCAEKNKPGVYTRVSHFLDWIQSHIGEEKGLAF
T4 sequence (P06869 21-178 partner limits assumed): as the sequence (P06869 21-178 partner limits assumed) above
Text: as §1, §2, §3

huPA-H99Y [1] = target: T5, huPA-H99Y (Homo sapiens, UniProt P00749, H272Y); test: Surface plasmon resonance analysis of peptide binding to huPA-H99Y; details: SPR
T5 construct: To ensure that the uPAs purified from the conditioned media were completely in the two-chain form, they were treated with plasmin; hexa-His (C); made in house; host or cells: HEK293 6E suspension cells
Description: (§4) Surface plasmon resonance (SPR) analysis
(§5) To determine the equilibrium binding constants (KD), the association rate constants (kon) and dissociation rate constants (koff) for peptide binding to uPA, surface plasmon resonance analysis was performed on a Biacore T200 instrument (Biacore, Uppsala, Sweden). A CM5 chip was coupled with the uPA variant (muPA or huPAH99Y) to be analysed, by injecting a concentration of 30 µg/mL uPA in immobilization buffer (10 mM sodium acetate, pH 5.0), aiming for an immobilised level of approximately 500 response units (RU). Immobilisation was followed by surface blocking with ethanolamine. A reference cell was prepared in the same way, without coupling of uPA. Mupain-1 variants in HBS with 0.1% BSA, in a dilution series, were injected at a flow rate of 30 µL per min during 60 s at 25°C. Subsequently, the dissociation was monitored during 600 s. Kinetic constants (k on and k off) were calculated with the Biacore Evaluation Software, using the 1∶1 kinetic fit. The K D values were calculated as k off /k on.

huPA-H99Y Q192A = huPA-H99Y Q192A (Homo sapiens, UniProt P00749, H272Y/Q373A); test: Ki for inhibition of huPA-H99Y-Q192A, chromogenic substrate; assay type: biochemical; set-up: To ensure that the uPAs purified from the conditioned media were completely in the two-chain form, they were treated with plasmin; hexa-His (C); made in house; host or cells: HEK293 6E suspension cells; details: 37°C; means ± S.D.; read-out: K i for inhibition of huPA-H99Y-Q192A
Text: as §1, §2, §3

muPA = target: T6, muPA (Mus musculus, UniProt P06869); test: Surface plasmon resonance analysis of peptide binding to muPA; set-up: species or system murine; details: SPR, 25°C, pH 7.4
T6 construct: To ensure that the uPAs purified from the conditioned media were completely in the two-chain form, they were treated with plasmin; hexa-His (C); made in house; host or cells: HEK293 6E suspension cells
T6 sequence (P06869 180-433 limits assumed): as the sequence (P06869 180-433 limits assumed) above
T6 sequence (P06869 21-178 partner limits assumed): as the sequence (P06869 21-178 partner limits assumed) above
Description: as §4, §5

muPA S190A = target: T7, muPA S190A (Mus musculus, UniProt P06869, S373A); test: Ki for inhibition of muPA-S190A, chromogenic substrate; assay type: biochemical, murine; details: means ± S.D.; read-out: K i for inhibition of muPA-S190A
T7 construct: To ensure that the uPAs purified from the conditioned media were completely in the two-chain form, they were treated with plasmin; hexa-His (C); made in house; host or cells: HEK293 6E suspension cells
T7 sequence (P06869 180-433 S373A): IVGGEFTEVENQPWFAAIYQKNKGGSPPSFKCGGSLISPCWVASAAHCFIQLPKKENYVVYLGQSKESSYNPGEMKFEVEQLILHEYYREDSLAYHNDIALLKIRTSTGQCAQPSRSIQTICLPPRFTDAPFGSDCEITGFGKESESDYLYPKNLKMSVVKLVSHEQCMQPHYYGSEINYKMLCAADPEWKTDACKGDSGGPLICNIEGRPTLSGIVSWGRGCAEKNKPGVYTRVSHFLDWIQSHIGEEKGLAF
T7 sequence (P06869 21-178 partner limits assumed): as the sequence (P06869 21-178 partner limits assumed) above
Text: as §1, §2, §3

huPA-H99Y [2] = target: T8, huPA-H99Y (Homo sapiens, UniProt P00749, C299A/H272Y/N322Q); test: Isothermal titration calorimetry for binding to huPA-H99Y catalytic domain; details: ITC, 25°C, pH 7.4
T8 construct: recombinant uPA catalytic domain (residues 159–411), harbouring a H99Y mutation; made in house; host or cells: Pichia pastoris X-33 (secreted)
Description: For these experiments, we used the catalytic domain of huPA-H99Y expressed in and purified from Pichia pastoris strain X-33 (see above). The protein was dissolved in and dialysed against a buffer of 20 mM sodium phosphate, pH 7.4, 140 mM NaCl. The protein concentration was determined by absorbance at 280 nm, using an extinction coefficient of 43810 M^−1cm^−1. The peptides were dissolved in the above-mentioned buffer. All isothermal titration calorimetry experiments were performed with a MicroCal^TM ITC200 instrument equilibrated to a temperature of 25°C (298oK). The concentration of uPA-H99Y catalytic domain used in the 200 µl sample cell was 5–50 µM, depending on the affinity of the ligand. Titrations were performed by injecting 2 µl of the ligand until the total syringe volume of 40 µl was spent. Titration of ligand into buffer was performed to obtain buffer correction. The equilibrium association constant KA and the reaction enthalpy ΔH were calculated by fitting the integrated titration peaks using a one-binding-site model in the ITC ORIGIN7 programme package. The following formulas for Gibbs free energy ΔG were used to analyse the measured energies
[drawing 4] (4) where R is the gas constant and T the absolute temperature. ΔS, the entropic change during the reaction, was calculated using equations 3 and 4 and the measured K A and ΔH values.

muPA K143A = target: T9, muPA K143A (Mus musculus, UniProt P06869, K322A); test: Ki for inhibition of muPA-K143A, chromogenic substrate; assay type: biochemical, murine; details: means ± S.D.; read-out: K i for inhibition of muPA-K143A
T9 construct: To ensure that the uPAs purified from the conditioned media were completely in the two-chain form, they were treated with plasmin; hexa-His (C); made in house; host or cells: HEK293 6E suspension cells
T9 sequence (P06869 180-433 K322A): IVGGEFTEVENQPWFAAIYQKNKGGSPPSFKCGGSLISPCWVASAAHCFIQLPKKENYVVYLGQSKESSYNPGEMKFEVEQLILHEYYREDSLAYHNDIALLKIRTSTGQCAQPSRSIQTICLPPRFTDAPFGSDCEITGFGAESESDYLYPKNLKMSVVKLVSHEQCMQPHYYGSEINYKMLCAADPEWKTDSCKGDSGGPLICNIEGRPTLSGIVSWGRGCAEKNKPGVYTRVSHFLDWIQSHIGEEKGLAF
T9 sequence (P06869 21-178 partner limits assumed): as the sequence (P06869 21-178 partner limits assumed) above
Text: as §1, §2, §3

muPA Y99A = target: T10, muPA Y99A (Mus musculus, UniProt P06869, Y274A); test: Ki for inhibition of muPA-Y99A, chromogenic substrate; assay type: biochemical, murine; details: means ± S.D.; read-out: K i for inhibition of muPA-Y99A
T10 construct: To ensure that the uPAs purified from the conditioned media were completely in the two-chain form, they were treated with plasmin; hexa-His (C); made in house; host or cells: HEK293 6E suspension cells
T10 sequence (P06869 180-433 Y274A): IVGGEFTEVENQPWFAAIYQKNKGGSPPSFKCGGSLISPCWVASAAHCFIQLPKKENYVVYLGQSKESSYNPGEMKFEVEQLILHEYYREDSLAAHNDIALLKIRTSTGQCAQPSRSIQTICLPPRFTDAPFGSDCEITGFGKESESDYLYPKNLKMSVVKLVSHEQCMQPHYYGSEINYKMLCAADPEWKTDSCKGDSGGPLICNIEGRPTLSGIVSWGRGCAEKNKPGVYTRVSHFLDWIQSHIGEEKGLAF
T10 sequence (P06869 21-178 partner limits assumed): as the sequence (P06869 21-178 partner limits assumed) above
Text: as §1, §2, §3

huPA-H99Y R35A = target: T11, huPA-H99Y R35A (Homo sapiens, UniProt P00749, H272Y/R198A); test: Ki for inhibition of huPA-H99Y-R35A, chromogenic substrate; assay type: biochemical; details: 37°C; means ± S.D.; read-out: K i for inhibition of huPA-H99Y-R35A
T11 construct: To ensure that the uPAs purified from the conditioned media were completely in the two-chain form, they were treated with plasmin; hexa-His (C); made in house; host or cells: HEK293 6E suspension cells
Text: as §1, §2, §3

huPA-H99Y [3] = target: T5, huPA-H99Y; test: Ki for inhibition of huPA-H99Y, chromogenic substrate S-2444; assay type: biochemical; details: 37°C; means ± S.D.; read-out: K i for inhibition of huPA-H99Y
Text: as §1, §2, §3

huPA-H99Y K143A = target: T12, huPA-H99Y K143A (Homo sapiens, UniProt P00749, H272Y/K320A); test: Ki for inhibition of huPA-H99Y-K143A, chromogenic substrate; assay type: biochemical; details: 37°C; means ± S.D.; read-out: K i for inhibition of huPA-H99Y-K143A
T12 construct: To ensure that the uPAs purified from the conditioned media were completely in the two-chain form, they were treated with plasmin; hexa-His (C); made in house; host or cells: HEK293 6E suspension cells
Text: as §1, §2, §3

huPA-H99Y [4] = target: T5, huPA-H99Y; details: 37°C; means ± S.D.; starred values reproduced from previous publications; ref Andersen et al., 2008; Hosseini et al., 2011; read-out: K i for inhibition of huPA-H99Y; cited from earlier work
[5] = 25°C, pH 7.4, calculated as k off/k on, read-out: K D, huPA-H99Y

SMILES	Ki (huPA-H99Y V41A) [nM]	Ki (muPA wt) [nM]	Ki (muPA V213T) [nM]	Ki (muPA K41A) [nM]	k off, huPA-H99Y (huPA-H99Y [1]; 25°C, pH 7.4)	k on, huPA-H99Y (huPA-H99Y [1]; 25°C, pH 7.4)	Kd (huPA-H99Y [1]; [5]) [nM]	Ki (huPA-H99Y Q192A) [nM]	k off, muPA (muPA)	k on, muPA (muPA)	Ki (muPA S190A) [nM]	Ki (muPA K143A) [nM]	Ki (muPA Y99A) [nM]	Ki (huPA-H99Y R35A) [nM]	Ki (huPA-H99Y K143A) [nM]	further results
CC(=O)N[C@H]1CSSC[C@@H](C(N)=O)NC(=O)[C@H](C)NC(=O)[C@H](CC(C)C)NC(=O)[C@H](Cc2ccc(O)cc2)NC(=O)[C@H](CCCNC(=N)N)NC(=O)[C@H](CO)NC(=O)[C@H](Cc2ccc(O)cc2)NC(=O)[C@H](C)NC(=O)[C@@H]2CCCN2C1=O [Mupain-1 D9A, CPAYSRYLAC] (Ac-CPAYSRYLAC-NH2; disulfide 1-10)	7200 ± 1440	890 ± 20	373 ± 55	270 ± 29	36.6±0.21 (3) s^-1, ×10^2	2.60±0.20 (3) M^-1s^-1, ×10^-5	1410 ± 110	4850 ± 320	4.01±0.31 (3) s^−1, ×10^2	0.985±0.169 (3) M^−1s^−1, ×10^−5	3020 ± 330	4340 ± 640	27200 ± 3300	2680 ± 290	8740 ± 640	Kd (huPA-H99Y [2]): 1170 ± 300 nM; Ki (huPA-H99Y [3]): 5990 ± 430 nM
CC(=O)N[C@H]1CSSC[C@@H](C(N)=O)NC(=O)[C@H](CC(=O)O)NC(=O)[C@H](CC(C)C)NC(=O)[C@H](Cc2ccc(O)cc2)NC(=O)[C@H](Cc2ccc(NC(=N)N)cc2)NC(=O)[C@H](CO)NC(=O)[C@H](Cc2ccc(O)cc2)NC(=O)[C@H](C)NC(=O)[C@@H]2CCCN2C1=O [Mupain-1-12, CPAYS[4-guanidino-phenyl-alanine]YLDC] (Ac-CPAYS[Phe(4-guanidino)]YLDC-NH2; disulfide 1-10)	1600 ± 540	280 ± 20	86 ± 30	1720 ± 240	24.6±1.2 (4) s^-1, ×10^2	2.06±0.15 (4) M^-1s^-1, ×10^-5	1210 ± 130	2350 ± 740	1.92±0.63 (4) s^−1, ×10^2	1.56±0.95 (4) M^−1s^−1, ×10^−5	2300 ± 460	1000 ± 40	5200 ± 60	3260 ± 1040	2140 ± 780	Kd (huPA-H99Y [1]; huPA-H99Y immobilized on CM5 chip, single example (S3 Fig), read-out: KD of fitted curve, representative sensorgram): 1320 nM; koff (huPA-H99Y [1]; huPA-H99Y immobilized on CM5 chip, single example (S3 Fig), read-out: koff of fitted curve, representative sensorgram): 0.248 s⁻¹; kon (huPA-H99Y [1]; huPA-H99Y immobilized on CM5 chip, single example (S3 Fig), read-out: kon of fitted curve, representative sensorgram): 188000 M⁻¹ s⁻¹; Ki (huPA-H99Y [4]): 1860 ± 740 nM

— publication PMC4278837, “A Cyclic Peptidic Serine Protease Inhibitor: Increasing Affinity by Increasing Peptide Flexibility” (PLoS ONE, 2014)
